Here are results for 41 molecules from ChEMBL document CHEMBL5154664, “Imidazolylacetophenone oxime-based multifunctional neuroprotective agents: Discovery and structure-activity relationships” (Eur J Med Chem, 2022).

Series [1] can be described thus: Inhibition of LPS induced NO production in mouse BV-2 cells by Griess reagent based analysis. The class given is functional, cell-based. Background: Nitrite, measured by Griess reagent, commonly stands in for NO production.
Series [2] is described as follows: Cytotoxicity against LPS induced mouse BV-2 cells assessed as inhibition in cell viability at 20 uM measured by MTT assay. Background: Tetrazolium assays rely on reduction of a dye to a coloured formazan, in cell work by metabolically active cells.
Series [3] can be described thus: Antioxidant activity assessed as DPPH radical scavenging activity at 20 uM incubated for 30 mins under dark condition by microplate reader based assay. The class given is functional. For orientation: DPPH is a stable violet radical that fades when it is reduced.
The target of series [4] is Acetylcholinesterase (Electrophorus electricus) (UniProt O42275). Nature of the series: Inhibition of electric eel AChE at 20 uM using acetylthiocholine iodide as substrate preincubated with enzyme for 20 mins followed by substrate addition and measured after 45 mins by Ellman's method. Conditions: time 65.0 min.
Sequence of Acetylcholinesterase (Electrophorus electricus) (O42275 24-633 limits assumed): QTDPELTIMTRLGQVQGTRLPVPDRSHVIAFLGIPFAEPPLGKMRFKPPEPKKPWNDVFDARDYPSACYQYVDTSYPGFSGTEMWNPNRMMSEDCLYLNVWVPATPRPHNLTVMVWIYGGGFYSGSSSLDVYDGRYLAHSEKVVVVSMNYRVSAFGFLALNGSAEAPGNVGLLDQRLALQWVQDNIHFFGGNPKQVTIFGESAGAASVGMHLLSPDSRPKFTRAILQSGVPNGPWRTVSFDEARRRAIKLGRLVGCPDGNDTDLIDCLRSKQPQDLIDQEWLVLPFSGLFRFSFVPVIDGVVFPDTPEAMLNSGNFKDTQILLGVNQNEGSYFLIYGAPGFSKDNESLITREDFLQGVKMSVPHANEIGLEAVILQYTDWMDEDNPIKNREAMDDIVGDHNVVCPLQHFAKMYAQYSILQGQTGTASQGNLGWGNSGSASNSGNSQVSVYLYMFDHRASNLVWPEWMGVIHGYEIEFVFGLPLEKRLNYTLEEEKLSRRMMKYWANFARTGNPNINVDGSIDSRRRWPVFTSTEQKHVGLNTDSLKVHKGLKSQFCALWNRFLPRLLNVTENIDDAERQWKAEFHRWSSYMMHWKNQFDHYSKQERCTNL
A short description of series [5]: Permeability of compound by PAMPA-BBB assay. The class given is ADME. Conditions: read-out: permeability.

As to `CC1(C)Oc2ccc(/C(Cn3ccnc3)=N/OC(=O)c3cccc4ccccc34)cc2O1`, in series [1], the concentration giving a half-maximal response (EC50) (usually the concentration that produces a half-maximal response) is 1.62 µM. The viability (in general, a read-out of living cells in per cent, often relative to untreated cells) at 20 µM in series [2] (BV-2 cells) was 91.1%. The Activity in series [3] came to 36.2%.
`O=c1c(O)c(-c2ccc(O)c(O)c2)oc2cc(O)cc(O)c12` [QUERCETIN] gave a concentration giving a half-maximal response (EC50) in series [1] of 9.56 µM. Further, the viability at 20 µM in series [2] (BV-2 cells) came out at 94.3%.
Turning to `Cc1cccc(C(=O)O/N=C(\Cn2ccnc2)c2ccc3c(c2)OC(C)(C)O3)c1`, in series [1], the EC50 amounted to 1.71 µM. For the same molecule, in series [2] (BV-2 cells), the viability at 20 µM was found to be 96.1%. Further, the Activity in series [3] amounted to 29.8%.
In series [1], `C#CCO/N=C(\Cn1ccnc1)c1ccc2c(c1)OC(C)(C)O2` displayed an EC50 of 3.25 µM. The viability at 20 µM in series [2] (BV-2 cells) amounted to 95.1%.
As to `CC1(C)Oc2ccc(/C(Cn3ccnc3)=N/OC(=O)/C=C/c3ccc(Cl)cc3)cc2O1`, the inhibition (usually the drop in the measured response relative to a control, in per cent) in series [4] was found to be 71%. The molecule further yielded an EC50 in series [1] of 3.71 µM. The viability at 20 µM in series [2] (BV-2 cells) worked out at 91%.
`N#Cc1ccc(CO/N=C(\Cn2ccnc2)c2ccc3c(c2)OCO3)cc1` registered a half-maximal effective concentration (EC50) in series [1] of 4.24 µM. Besides, the viability at 20 µM in series [2] (BV-2 cells) was determined as 91.6%.
For `C#CCO/N=C(\Cn1ccnc1)c1ccc(OC)cc1`, the EC50 in series [1] was 9.07 µM. Further, the viability at 20 µM in series [2] (BV-2 cells) amounted to 95.9%.
On to `c1ccc(CO/N=C(\Cn2ccnc2)c2ccc3c(c2)OCO3)cc1`, for which a half-maximal response in series [1] (EC50) required 4.43 µM. In addition, the viability at 20 µM in series [2] (BV-2 cells) is 97.8%.
In the case of `C=CCO/N=C(\Cn1ccnc1)c1ccc2c(c1)OC(C)(C)O2`, in series [1], the EC50 came out at 2.22 µM. The viability at 20 µM in series [2] (BV-2 cells) came out at 96.4%.
`CC1(C)Oc2ccc(/C(Cn3ccnc3)=N/OC(=O)Cc3ccc4ccccc4c3)cc2O1`: the EC50 in series [1] turned out to be 1.51 µM. Moreover, the viability at 20 µM in series [2] (BV-2 cells) stood at 96.4%.
`CC1(C)Oc2ccc(/C(Cn3ccnc3)=N/OC(=O)c3ccc4ccccc4c3Br)cc2O1` yielded an inhibition in series [4] of 72%. A half-maximal effect in series [1] (EC50) was put at 6.5 µM. In addition, in series [2] (BV-2 cells), the viability at 20 µM is 90.8%.
For `C(=C\c1ccccc1)/CO/N=C(\Cn1ccnc1)c1ccc2c(c1)OCO2`, in series [1], the EC50 is over 20 µM. In series [2] (BV-2 cells), the viability at 20 µM is 96.3%.
Regarding `NC(=O)N1c2ccccc2C=Cc2ccccc21` [CARBAMAZEPINE], in series [5], the Papp turned out to be 10.2 ×10⁻⁶ cm/s.
The molecule `C#CC(C)O/N=C(\Cn1ccnc1)c1ccc2c(c1)OCO2` (centres undefined) showed an EC50 in series [1] of 5.41 µM. Besides, the viability at 20 µM in series [2] (BV-2 cells) came to 96.1%.
Molecule `CC1(C)Oc2ccc(/C(Cn3ccnc3)=N/OC(=O)c3ccccc3Br)cc2O1` gave an EC50 in series [1] of 3.89 µM. Moreover, in series [2] (BV-2 cells), the viability at 20 µM is 95.4%.
In series [1], `CC1(C)Oc2ccc(/C(Cn3ccnc3)=N/OC(=O)c3ccc(Cl)cc3)cc2O1` came in with an EC50 of 5.52 µM. Also, in series [2] (BV-2 cells), the viability at 20 µM worked out at 90.5%.
For `Cc1ccc(C(=O)O/N=C(\Cn2ccnc2)c2ccc3c(c2)OC(C)(C)O3)cc1` the same measures were 9.05 µM and 98.2%.
For `Cc1ccc(/C=C/C(=O)O/N=C(\Cn2ccnc2)c2ccc3c(c2)OC(C)(C)O3)cc1` the same measures were 6.03 µM and 93.6%.
The molecule `CC1(C)Oc2ccc(/C(Cn3ccnc3)=N/OC(=O)/C=C/c3ccccc3F)cc2O1` gave an EC50 in series [1] of 3.19 µM. For the same molecule, the viability at 20 µM in series [2] (BV-2 cells) was determined as 90.8%.
For `C#CCO/N=C(\Cn1ccnc1)c1ccc(I)cc1` the same measures were 12.7 µM and 92.1%.
`C#CCO/N=C(\Cn1ccnc1)c1ccc(C(F)(F)F)cc1` gave an EC50 in series [1] of 8.55 µM. For the same molecule, the viability at 20 µM in series [2] (BV-2 cells) came to 93.7%.
Regarding `FC(F)(F)c1ccccc1CO/N=C(\Cn1ccnc1)c1ccc2c(c1)OCO2`, the EC50 in series [1] stood at 1.53 µM. Besides, in series [2] (BV-2 cells), the viability at 20 µM was 95.4%. In addition, the Activity in series [3] is 8.51%.
On to `CC1(C)Oc2ccc(/C(Cn3ccnc3)=N/OC(=O)/C=C/c3ccc(C(F)(F)F)cc3)cc2O1`, for which the EC50 in series [1] worked out at 1.03 µM. Also, the viability at 20 µM in series [2] (BV-2 cells) came out at 92.1%. Moreover, the Activity in series [3] was 27.7%.
In turn, `CC1(C)Oc2ccc(/C(Cn3ccnc3)=N/OC(=O)c3ccc(Br)cc3)cc2O1` gave an EC50 in series [1] of 3.16 µM. Further, the viability at 20 µM in series [2] (BV-2 cells) is 92.6%.
For `Cc1ccc(C(=O)O/N=C(\Cn2ccnc2)c2ccc3c(c2)OC(C)(C)O3)c2ccccc12`, the midpoint of the response in series [1], the EC50, lay at 1.79 µM. For the same molecule, the viability at 20 µM in series [2] (BV-2 cells) came to 94.3%. The Activity in series [3] is 34%.
On to `C#CCO/N=C(\Cn1ccnc1)c1ccc(Br)cc1`, for which the EC50 in series [1] was determined as 5.6 µM. The CC50 (commonly the concentration giving 50% cytotoxicity) in series [2] (BV-2 cells) was over 20 µM.
Molecule `C#CCO/N=C(\Cn1ccnc1)c1ccc(F)cc1` had an EC50 in series [1] of 7.8 µM. Besides, in series [2] (BV-2 cells), the viability at 20 µM turned out to be 93.8%.
Regarding `CC1(C)Oc2ccc(/C(Cn3ccnc3)=N/OC(=O)/C=C/c3cccc(Cl)c3)cc2O1`, in series [1], the EC50 worked out at 4.83 µM. In addition, the viability at 20 µM in series [2] (BV-2 cells) was found to be 92.7%.
In series [1], `C#CCO/N=C(\Cn1ccnc1)c1ccc(Cl)cc1` came in with an EC50 of 15.5 µM. In addition, the viability at 20 µM in series [2] (BV-2 cells) worked out at 92.4%.
Molecule `CC(C)=CCO/N=C(\Cn1ccnc1)c1ccc2c(c1)OCO2` showed an EC50 in series [1] of 1.76 µM. In series [2] (BV-2 cells), the viability at 20 µM is 93.3%. For the same molecule, in series [3], the Activity was determined as 4.25%.
As to `CC1(C)Oc2ccc(/C(Cn3ccnc3)=N/OC(=O)c3ccc4cc(Br)ccc4c3)cc2O1`, the inhibition in series [4] was 69%. Moreover, the EC50 in series [1] came to 1.13 µM. The viability at 20 µM in series [2] (BV-2 cells) turned out to be 92.7%.
The molecule `CC1(C)Oc2ccc(/C(Cn3ccnc3)=N/OC(=O)/C=C/c3ccc(Br)cc3)cc2O1` yielded an EC50 in series [1] of 6.89 µM. In addition, the viability at 20 µM in series [2] (BV-2 cells) came to 96.3%.
Turning to `FC(F)(F)c1ccc(CO/N=C(\Cn2ccnc2)c2ccc3c(c2)OCO3)cc1`, the EC50 in series [1] amounted to 2.37 µM. Also, the viability at 20 µM in series [2] (BV-2 cells) was found to be 92.8%.
Molecule `C=CCO/N=C(\Cn1ccnc1)c1ccc2c(c1)OCO2` returned an EC50 in series [1] of 3.42 µM. In series [2] (BV-2 cells), the viability at 20 µM is 97.8%.
In series [1], `CC1(C)Oc2ccc(/C(Cn3ccnc3)=N/OC(=O)/C=C/c3ccccc3)cc2O1` displayed an EC50 of 5.85 µM. Moreover, the viability at 20 µM in series [2] (BV-2 cells) was found to be 91.8%.
On to `CC1(C)Oc2ccc(/C(Cn3ccnc3)=N/OC(=O)c3ccc(F)cc3)cc2O1`, for which, in series [1], the EC50 was 6.32 µM. For the same molecule, in series [2] (BV-2 cells), the viability at 20 µM is 99.7%.
Molecule `CC1(C)Oc2ccc(/C(Cn3ccnc3)=N/OCc3ccccc3)cc2O1` had an EC50 in series [1] of 5.69 µM. The viability at 20 µM in series [2] (BV-2 cells) is 95.7%.
In series [1], `CC1(C)Oc2ccc(/C(Cn3ccnc3)=N/OC(=O)/C=C/c3ccc(F)cc3)cc2O1` showed an EC50 of 5.96 µM. In series [2] (BV-2 cells), the viability at 20 µM was 95.7%.
Take `Clc1ccc(CO/N=C(\Cn2ccnc2)c2ccc(Cl)cc2Cl)c(Cl)c1` [OXICONAZOLE]: the viability at 20 µM in series [2] (bv-2) was determined as 96.2%.
`C#CCO/N=C(\Cn1ccnc1)c1ccc2c(c1)OCO2` came in with an EC50 in series [1] of 2.07 µM. Besides, in series [2] (BV-2 cells), the viability at 20 µM stood at 92.5%.
`C=C(C)CO/N=C(\Cn1ccnc1)c1ccc2c(c1)OCO2` showed an EC50 in series [1] of 2.12 µM. In addition, in series [2] (BV-2 cells), the viability at 20 µM was 96.5%.
